The record followed here is ChEMBL document CHEMBL5113518, “Discovery of a Novel G-Quadruplex and Histone Deacetylase (HDAC) Dual-Targeting Agent for the Treatment of Triple-Negative Breast Cancer” (J Med Chem, 2022).

Each structure is given as a SMILES string. Calls of active or inactive are those of the source. No cut-off for these calls is given here.

In data set [1] the target is Histone deacetylase. Put plainly: Inhibition of HDAC in human HeLa nuclear extract incubated for 30 mins by fluorescence-based Glo-luminescence assay. The format is cell-based.
A further data set concerns the target Histone deacetylase 1 (Homo sapiens, UniProt Q13547). Put plainly: Inhibition of full length recombinant C-terminal GST-tagged human HDAC1 expressed in baculovirus infected Sf9 insect cells incubated for 50 mins by Glo- luminescence assay.
The target in another data set is T1, Histone deacetylase 8 (Homo sapiens, UniProt Q9BY41).
T1 sequence (Q9BY41 whole entry): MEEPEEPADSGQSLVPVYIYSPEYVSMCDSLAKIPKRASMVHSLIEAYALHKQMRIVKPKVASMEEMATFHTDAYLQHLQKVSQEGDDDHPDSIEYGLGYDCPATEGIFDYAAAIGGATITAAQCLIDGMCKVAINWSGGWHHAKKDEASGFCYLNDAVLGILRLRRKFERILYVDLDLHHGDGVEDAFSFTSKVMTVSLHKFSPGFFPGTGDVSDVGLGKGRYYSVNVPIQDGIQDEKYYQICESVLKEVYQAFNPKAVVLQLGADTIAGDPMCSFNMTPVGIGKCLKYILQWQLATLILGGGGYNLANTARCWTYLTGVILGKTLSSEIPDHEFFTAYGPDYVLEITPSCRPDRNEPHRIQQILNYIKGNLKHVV
Put plainly: Inhibition of full length recombinant N-terminal GST-tagged human HDAC8 expressed in baculovirus infected Sf9 insect cells incubated for 50 mins by Glo- luminescence assay.

Data set [2] can be described thus: Inhibition of full length recombinant N-terminal GST-tagged human HDAC11 expressed in baculovirus infected Sf9 insect cells incubated for 50 mins by Glo- luminescence assay. The format is cell-based.
Data set [3] addresses Quadruplex DNA. Put plainly: Binding affinity to 5' FAM-labeled c-myc G4-quadruplex DNA Pu22 (unknown origin) assessed as dissociation constant by surface plasmon resonance assay. The format is nucleic-acid assay.
Data set [4] deals with Quadruplex DNA. Put plainly: Binding affinity to […]' FAM-labeled c-myc G4-quadruplex DNA Pu22 (unknown origin) by fluorescence quench assay. The format is nucleic-acid assay.
The target of data set [5] is Histone deacetylase. Put plainly: Inhibition of HDAC in human MDA-MB-231 cells incubated for 45 mins by luminescence assay. The format is cell-based.
In data set [6] the test system is MDA-MB-231. Put plainly: Stabilization of DNA Pu22 (unknown origin ) in human MDA-MB-231 cells assessed as G4-quadruplex formation by measuring fold change at 1.25 to 5 uM incubated for 48 hrs by immunofluorescence based confocal laser scanning microscopic analysis. The following applies: dose 1.25-5 µM. The format is cell-based.
Data set [7] concerns MDA-MB-231. Put plainly: Stabilization of DNA Pu22 (unknown origin ) in human MDA-MB-231 cells assessed as G4-quadruplex formation by measuring fold change at 2.5 uM incubated for 6 hrs by immunofluorescence based confocal laser scanning microscopic analysis. The format is cell-based.
The test system of data set [8] is MDA-MB-231. Put plainly: Induction of DNA damage in human MDA-MB-231 cells at 1.25 to 5 uM assessed as increase in gamma-H2AX level and measured for 48 hrs by DAPI staining method. The format is functional, cell-based. The following applies: dose 1.25-5 µM.
In data set [9] the test system is MDA-MB-231. Put plainly: Induction of cell cycle arrest in human MDA-MB-231 cells assessed as accumulation at G2/M phase at 2.5 uM measured for 6 to 48 hrs. The format is functional, cell-based. The following applies: time 6-48 hrs.
The subject of data set [10] is MDA-MB-231. Put plainly: Effect on metabolism in human MDA-MB-231 cells assessed as oxygen consumption rate at 2.5 uM measured after 48 hrs by seahorse XF24 analysis. The format is functional, cell-based.
Data set [11] has as its system MDA-MB-231. Put plainly: Inhibition of cell invasion in human MDA-MB-231 cells at 2.5 uM incubated for 48 hrs by crystal violet staining based transwell assay. The format is functional.
Data set [12] concerns SUM-159-PT. Put plainly: Cytotoxicity against human SUM159PT cells harboring wild type BRCA1 and wild type BRCA2 assessed as reduction in cell viability. The format is functional, cell-based.
The test system of data set [13] is BT-549. Put plainly: Cytotoxicity against human BT-549 cells harboring wild type BRCA1 and wild type BRCA2 assessed as reduction in cell viability. The format is functional, cell-based.
Data set [14] deals with MDA-MB-231. Put plainly: Inhibition of colony formation in human MDA-MB-231 cells measured for 7 days by crystal violet staining based assay. The format is functional, cell-based. The note with it: dose 2.5 µM, time 7.0 day, DDE = dose-dependent effect.
Data set [15] deals with SUM-159-PT. Put plainly: Inhibition of colony formation in human SUM159PT cells measured for 7 days by crystal violet staining based assay. The format is functional, cell-based. The note with it: dose 2.5 µM, time 7.0 day, DDE = dose-dependent effect.
Data set [16] deals with BT-549. Put plainly: Induction of DNA damage in human BT-549 at 1.25 to 5 uM assessed as increase in gamma-H2AX level and measured for 48 hrs by DAPI staining method. The format is functional, cell-based. The note with it: dose 1.25-5 µM.
Data set [17] deals with SUM-159-PT. Put plainly: Induction of DNA damage in human SUM159PT at 1.25 to 5 uM assessed as increase in gamma-H2AX level and measured for 48 hrs by DAPI staining method. The format is functional, cell-based. The following applies: dose 1.25-5 µM.
Data set [18] is described as follows: Toxicity in BALB/c-nu/nu mouse at 2.5 mg/kg, ip measured for 31 days. The format is organism-based. The following applies: in vivo, 744 h, time 31 day.
Data set [19] can be described thus: Toxicity in BALB/c-nu/nu mouse assessed as toxic sign at 2.5 mg/kg, ip measured for 31 days. The format is organism-based. The note with it: in vivo, 744 h, time 31 day.
A further data set has as its system HeLa. Put plainly: Potency index, ratio of SAHA IC50 to test compound IC50 for inhibition of HDAC in human HeLa nuclear extract.

Chain of Histone deacetylase 1 (Q13547 whole entry): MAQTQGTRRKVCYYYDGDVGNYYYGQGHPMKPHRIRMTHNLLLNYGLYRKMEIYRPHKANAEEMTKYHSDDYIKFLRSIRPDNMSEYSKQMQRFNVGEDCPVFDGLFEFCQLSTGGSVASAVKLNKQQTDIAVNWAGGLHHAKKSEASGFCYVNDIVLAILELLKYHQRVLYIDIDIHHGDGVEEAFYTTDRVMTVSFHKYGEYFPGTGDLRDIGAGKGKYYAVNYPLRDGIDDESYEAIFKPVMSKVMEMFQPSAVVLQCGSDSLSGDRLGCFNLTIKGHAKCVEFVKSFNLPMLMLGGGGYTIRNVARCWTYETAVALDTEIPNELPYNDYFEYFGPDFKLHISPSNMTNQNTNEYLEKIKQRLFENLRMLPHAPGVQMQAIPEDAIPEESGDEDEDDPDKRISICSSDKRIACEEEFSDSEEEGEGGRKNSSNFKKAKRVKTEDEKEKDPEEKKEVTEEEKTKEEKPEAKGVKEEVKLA

What is called IC50 is the concentration that gives 50% inhibition. A word on the Kd: it is the equilibrium constant for the complex coming apart. For `CN(C)CCCNC(=O)c1ccc(/C=C2\CCn3c2nc2cc(N4CCN(CCCCCCCC(=O)NO)CC4)c(F)cc2c3=O)cc1.Cl`, the IC50 against Histone deacetylase [1] worked out at 1900 nM; at Histone deacetylase 1, 1260 nM; on Histone deacetylase 8 it was 30 nM; in data set [2] it was 1380 nM; against Histone deacetylase [5], 1100 nM; with SUM-159-PT [12], 7400 nM. In the data set with BT-549 [13], the IC50 worked out at 6500 nM. Moreover, the Kd on Quadruplex DNA [3] worked out at 1600 nM. The compound also showed a DC50 at Quadruplex DNA [4] of 100 nM. Besides, the fold change (FC) in the data set with MDA-MB-231 [6] stood at 8. In addition, the result in the data set with MDA-MB-231 [7], in the data set on MDA-MB-231 [8], in the data set with MDA-MB-231 [9], in the data set with MDA-MB-231 [10], in the data set on BT-549 [16] and in the data set with SUM-159-PT [17] was Active. Moreover, in the data set on MDA-MB-231 [11], the inhibition entry is “Active”. Moreover, the inhibition result in the data set on MDA-MB-231 [14] and in the data set on SUM-159-PT [15] was “Dde” throughout. The Activity entry in data set [18] and in data set [19] was “Non-Toxic” throughout. Besides, in the data set with HeLa, the Ratio IC50 was 20.
